Test results reported in patent publication US5502060A, “HIV protease inhibitors” (Merck & Co., Inc., priority 1994, dated 1996).

Molecular target: HIV protease (Human immunodeficiency virus type 1 group M subtype B, UniProt P03366)
Experiment: biochemical
Settings: protease expressed in Escherichia coli; peptide substrate Val-Ser-Gln-Asn-(betanapthyl)Ala-Pro-Ile-Val; 50 mM Na acetate, pH 5.5, 30° C., 1 hour; HPLC
Procedure: Assay for Inhibition of Microbial Expressed Viral Protease
Inhibition studies of the reaction of the protease expressed in Escherichia coli with a peptide substrate Val-Ser-Gln-Asn-(betanapthyl)Ala-Pro-Ile-Val, 0.5 mg/mL at the time the reaction is initiated! were in 50 mM Na acetate, pH 5.5, at 30° C. for 1 hour. Various concentrations of inhibitor in 1.0 ul DMSO were added to 25 ul of the peptide solution in water. The reaction is initiated by the addition of 15 ul of 0.33 nM protease (0.11 ng) in a solution of 0.133 M Na acetate pH 5.5 and 0.26% bovine serum albumin. The reaction was quenched with 160 ul of 5% phosphoric acid. Products of the reaction were separated by HPLC (VYDAC wide pore 5 cm C-18reverse phase, acetonitrile gradient, 0.1% phosphoric acid). The extent of inhibition of the reaction was determined from the peak heights of the products.

IC50	Compound
~0.059 µM	CC(C)(C)NC(=O)[C@@H]1C[C@@H]2CCCC[C@@H]2CN1C[C@@H](O)[C@H](Cc1ccccc1)NC(=O)O[C@H]1CCS(=O)(=O)C1 [B, Cis-N-tert-butyl-decahydro-2 2(R)-hydroxy-4-phenyl-3(S)-3(S)-1,1-dioxotetr ahydrothien-3-yloxycarbonylamino !-butyl!-(4aS, 8aS )-isoquinoline-3(S)-carboxamide hydrate]
~0.26 µM	CC(C)(C)NC(=O)[C@@H]1C[C@@H]2CCCC[C@@H]2CN1C[C@@H](O)[C@H](Cc1ccccc1)NC(=O)O[C@H]1CCOC1 [Compound A, cis-N-tert-butyl-decahydro-2 2(R)hydroxy-4-phenyl-3(S)-3(S)-tetrahydrofuranyloxycarbonylamino !-butyl!-(4aS, 8aS )-isoquinoline-3(S)carboxamide]
~0.004 µM	CC(C)[C@@H]1[C@H](OC(=O)N[C@@H](Cc2ccccc2)[C@H](O)CN2C[C@H]3CCCC[C@H]3C[C@H]2C(=O)NC(C)(C)C)CCS1(=O)=O [Compound C, N-tert-butyl-decahydro-2 2(R)-hydroxy-4-phenyl-3(S)-1,1-dioxo-2(R)-methylethyl-3(R)-tetrahydrothienyloxycarbonylamino!butyl!-(4aS, 8aS) isoquinoline-3(S)-carboxamide]
